Experiments:
[1] = target: Tyrosine-protein kinase Fgr (Homo sapiens) (UniProt P09769); test: Selectivity interaction (KinomeScan (DiscoverX)) EUB0000655a FGR; settings: at 10 µM
[2] = target: T1, Ephrin type-B receptor 6 (Homo sapiens) (UniProt O15197); test: Selectivity interaction (KinomeScan (DiscoverX)) EUB0001079a EPHB6; settings: at 1 µM
T1 sequence (whole entry): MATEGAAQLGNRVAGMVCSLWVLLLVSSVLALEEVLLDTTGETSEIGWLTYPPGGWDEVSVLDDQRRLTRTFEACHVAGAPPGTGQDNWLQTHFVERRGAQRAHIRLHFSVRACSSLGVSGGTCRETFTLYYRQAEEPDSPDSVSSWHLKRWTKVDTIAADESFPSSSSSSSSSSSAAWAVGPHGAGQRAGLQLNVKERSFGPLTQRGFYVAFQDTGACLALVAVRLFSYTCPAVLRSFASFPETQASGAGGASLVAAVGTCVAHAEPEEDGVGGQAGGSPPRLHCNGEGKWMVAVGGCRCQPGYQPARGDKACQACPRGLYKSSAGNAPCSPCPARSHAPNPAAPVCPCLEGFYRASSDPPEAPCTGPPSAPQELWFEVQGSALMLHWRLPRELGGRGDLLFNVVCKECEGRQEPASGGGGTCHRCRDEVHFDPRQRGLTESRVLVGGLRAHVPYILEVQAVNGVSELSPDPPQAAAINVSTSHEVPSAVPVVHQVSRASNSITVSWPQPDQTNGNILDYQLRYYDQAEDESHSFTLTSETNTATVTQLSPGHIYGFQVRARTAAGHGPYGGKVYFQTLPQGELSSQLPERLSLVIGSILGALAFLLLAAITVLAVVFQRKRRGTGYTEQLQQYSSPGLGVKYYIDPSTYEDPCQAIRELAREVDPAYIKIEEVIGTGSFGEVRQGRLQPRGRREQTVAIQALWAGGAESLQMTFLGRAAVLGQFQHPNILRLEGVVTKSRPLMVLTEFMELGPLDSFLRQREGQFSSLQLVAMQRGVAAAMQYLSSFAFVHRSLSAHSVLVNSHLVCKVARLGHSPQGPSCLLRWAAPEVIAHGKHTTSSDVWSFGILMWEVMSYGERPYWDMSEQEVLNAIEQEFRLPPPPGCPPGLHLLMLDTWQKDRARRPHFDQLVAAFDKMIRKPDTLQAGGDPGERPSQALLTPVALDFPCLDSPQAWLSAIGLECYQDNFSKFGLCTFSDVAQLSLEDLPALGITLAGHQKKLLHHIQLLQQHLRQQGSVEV

[3] = target: Serine/threonine-protein kinase/endoribonuclease IRE1 (Homo sapiens) (UniProt O75460); test: Selectivity interaction (KinomeScan (DiscoverX)) EUB0000618a ERN1; settings: at 10 µM
[4] = target: Serine/threonine-protein kinase 33 (Homo sapiens) (UniProt Q9BYT3); test: Selectivity interaction (KinomeScan (DiscoverX)) EUB0001619a STK33; settings: at 1 µM
[5] = target: T2, Ephrin type-B receptor 2 (Homo sapiens) (UniProt P29323); test: Selectivity interaction (KinomeScan (DiscoverX)) EUB0000092b EPHB2; settings: at 10 µM
T2 sequence (whole entry): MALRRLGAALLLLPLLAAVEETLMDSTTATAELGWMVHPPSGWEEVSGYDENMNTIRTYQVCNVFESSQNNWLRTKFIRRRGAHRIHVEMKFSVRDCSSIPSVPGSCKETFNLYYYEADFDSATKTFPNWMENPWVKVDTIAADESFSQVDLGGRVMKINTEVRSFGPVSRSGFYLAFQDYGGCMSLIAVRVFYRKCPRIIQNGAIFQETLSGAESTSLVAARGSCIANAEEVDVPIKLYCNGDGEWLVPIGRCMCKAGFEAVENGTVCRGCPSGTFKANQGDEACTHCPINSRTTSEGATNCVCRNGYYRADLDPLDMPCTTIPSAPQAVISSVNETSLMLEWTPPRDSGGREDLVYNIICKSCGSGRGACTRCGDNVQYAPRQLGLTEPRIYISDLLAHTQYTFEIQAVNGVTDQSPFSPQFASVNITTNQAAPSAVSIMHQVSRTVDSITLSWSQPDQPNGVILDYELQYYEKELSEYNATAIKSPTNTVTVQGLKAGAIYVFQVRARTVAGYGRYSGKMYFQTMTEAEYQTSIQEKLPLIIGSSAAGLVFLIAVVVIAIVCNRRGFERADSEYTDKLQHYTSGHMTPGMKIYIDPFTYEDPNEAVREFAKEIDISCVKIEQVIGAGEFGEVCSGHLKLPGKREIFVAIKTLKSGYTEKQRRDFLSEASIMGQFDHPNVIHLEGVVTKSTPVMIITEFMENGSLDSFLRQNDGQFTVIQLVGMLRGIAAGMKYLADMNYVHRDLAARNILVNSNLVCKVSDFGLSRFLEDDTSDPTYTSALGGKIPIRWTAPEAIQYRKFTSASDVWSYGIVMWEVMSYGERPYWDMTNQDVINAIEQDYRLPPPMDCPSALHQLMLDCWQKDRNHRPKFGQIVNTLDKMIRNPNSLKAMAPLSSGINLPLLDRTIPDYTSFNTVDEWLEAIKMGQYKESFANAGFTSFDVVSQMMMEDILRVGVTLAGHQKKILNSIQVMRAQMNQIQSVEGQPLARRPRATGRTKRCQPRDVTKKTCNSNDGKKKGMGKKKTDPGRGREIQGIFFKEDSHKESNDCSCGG

Chain of Serine/threonine-protein kinase/endoribonuclease IRE1 (Homo sapiens) (O75460 19-977 limits assumed): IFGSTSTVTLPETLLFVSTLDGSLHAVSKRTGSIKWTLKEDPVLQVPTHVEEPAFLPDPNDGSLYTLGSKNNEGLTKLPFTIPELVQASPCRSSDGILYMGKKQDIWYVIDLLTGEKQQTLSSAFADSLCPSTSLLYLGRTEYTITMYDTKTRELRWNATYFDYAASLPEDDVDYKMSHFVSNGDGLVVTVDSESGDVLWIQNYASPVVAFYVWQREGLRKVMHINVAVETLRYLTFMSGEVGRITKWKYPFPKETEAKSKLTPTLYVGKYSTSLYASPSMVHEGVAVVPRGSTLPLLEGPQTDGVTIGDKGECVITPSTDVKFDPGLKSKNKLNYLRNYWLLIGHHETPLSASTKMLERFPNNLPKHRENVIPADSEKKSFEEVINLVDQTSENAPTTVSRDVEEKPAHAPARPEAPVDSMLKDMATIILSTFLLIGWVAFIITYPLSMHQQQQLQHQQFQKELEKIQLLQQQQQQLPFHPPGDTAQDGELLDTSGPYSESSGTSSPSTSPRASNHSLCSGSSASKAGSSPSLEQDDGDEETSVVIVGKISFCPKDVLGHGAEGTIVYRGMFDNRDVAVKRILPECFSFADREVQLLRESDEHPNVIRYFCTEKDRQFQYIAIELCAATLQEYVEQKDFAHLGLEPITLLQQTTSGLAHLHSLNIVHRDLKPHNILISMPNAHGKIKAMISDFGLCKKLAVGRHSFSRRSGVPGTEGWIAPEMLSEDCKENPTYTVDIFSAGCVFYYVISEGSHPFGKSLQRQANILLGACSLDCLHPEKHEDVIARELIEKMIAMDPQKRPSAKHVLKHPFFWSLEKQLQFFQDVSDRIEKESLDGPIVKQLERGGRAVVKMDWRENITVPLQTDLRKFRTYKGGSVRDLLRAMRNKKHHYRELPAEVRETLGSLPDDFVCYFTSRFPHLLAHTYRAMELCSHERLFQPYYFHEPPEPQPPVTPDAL
Chain of Tyrosine-protein kinase Fgr (Homo sapiens) (P09769 2-529 limits assumed): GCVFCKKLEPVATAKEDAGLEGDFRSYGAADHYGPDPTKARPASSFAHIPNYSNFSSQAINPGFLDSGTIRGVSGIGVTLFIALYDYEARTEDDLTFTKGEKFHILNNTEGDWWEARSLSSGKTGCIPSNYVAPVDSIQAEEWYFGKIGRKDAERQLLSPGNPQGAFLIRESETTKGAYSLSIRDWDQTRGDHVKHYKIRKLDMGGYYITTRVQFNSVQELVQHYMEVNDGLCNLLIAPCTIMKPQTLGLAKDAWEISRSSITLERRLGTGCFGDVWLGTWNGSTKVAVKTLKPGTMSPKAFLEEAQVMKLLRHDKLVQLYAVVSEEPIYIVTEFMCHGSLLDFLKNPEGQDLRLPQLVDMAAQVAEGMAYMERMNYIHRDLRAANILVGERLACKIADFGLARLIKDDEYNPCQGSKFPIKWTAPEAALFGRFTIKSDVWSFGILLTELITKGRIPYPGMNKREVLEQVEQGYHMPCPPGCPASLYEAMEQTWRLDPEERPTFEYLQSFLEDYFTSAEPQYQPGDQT
Chain of Serine/threonine-protein kinase 33 (Homo sapiens) (Q9BYT3 whole entry, looked up): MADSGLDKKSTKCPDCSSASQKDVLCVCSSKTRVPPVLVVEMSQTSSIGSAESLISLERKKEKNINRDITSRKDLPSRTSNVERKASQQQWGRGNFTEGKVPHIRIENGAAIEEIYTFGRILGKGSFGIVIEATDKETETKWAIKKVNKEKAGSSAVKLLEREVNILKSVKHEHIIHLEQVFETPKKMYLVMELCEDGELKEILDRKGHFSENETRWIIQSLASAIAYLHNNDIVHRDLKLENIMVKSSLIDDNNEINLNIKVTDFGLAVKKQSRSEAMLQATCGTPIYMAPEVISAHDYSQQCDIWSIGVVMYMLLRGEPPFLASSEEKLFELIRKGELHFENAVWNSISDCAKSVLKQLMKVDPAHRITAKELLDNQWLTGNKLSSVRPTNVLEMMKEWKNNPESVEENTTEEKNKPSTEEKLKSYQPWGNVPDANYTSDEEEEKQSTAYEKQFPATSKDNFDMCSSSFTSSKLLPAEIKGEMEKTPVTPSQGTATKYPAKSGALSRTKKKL

CN(C)CCOc1ccc(-c2nc(-c3ccncc3)c(-c3ccc4c(c3)CC/C4=N\O)[nH]2)cc1
% of control [1]: 87%

Nc1cnc(N2CCc3cc(S(=O)(=O)Nc4c(F)cc(Cl)cc4F)cc(N4CCCC4=O)c32)nc1 [TP-020n]
% of control [2]: 100%

O[C@H]1CC[C@H](Nc2ncc3nc(Nc4c(F)cc(F)cc4F)n([C@H]4CCOC4)c3n2)CC1
% of control [3]: 46%

N#Cc1cccc(-c2c[nH]c3ncnc(N4CCOCC4)c23)c1
% of control [4]: 60%

CCC(=O)N1CCN(c2ccc(-n3c(=O)ccc4cnc5ccc(-c6cnc7ccccc7c6)cc5c43)cc2C(F)(F)F)CC1
% of control [5]: 100%

From ChEMBL document CHEMBL5465560, “Selectivity Literature for EUbOPEN Chemogenomic Library” (2024)
